Values of other authors in patent US20150216918A1, “FERMENTED SOY NUTRITIONAL SUPPLEMENTS INCLUDING MUSHROOM COMPONENTS” (priority 2010, published 2015).

System: tumor cells

CC(C)CCCCCCCCCCCC(=O)O [MDT-13, 13-methyl-tetradecanoic acid]
induction of apoptosis in tumor cells: induce apoptosis
